Assay results taken from patent US12398151B2, “Sumo inhibitor compounds and uses thereof” (SUVALENT THERAPEUTICS, INC., priority 2019, dated 2025).
Where two headings read alike, the source gives them in different places.

Tests used:
SUMO E1 = target: T1, SUMO E1 (Homo sapiens, UniProt Q9UBT2); assay: SUMO E1 inhibition: UBC9-SUMO1 conjugation by SDS gel electrophoresis; format: biochemical; conditions: read-out: SUMO E1 percent inhibition of adduct formation; for inhibition at 25 µM: 25 uM compound; for inhibition at 3 µM: 3 uM compound; for inhibition at 27 µM: 27 uM compound; for inhibition at 1 µM: 1 uM compound; for inhibition at 9 µM: 9 uM compound; for inhibition at 10 µM: 10 uM compound
T1 sequence (Q9UBT2 1-640): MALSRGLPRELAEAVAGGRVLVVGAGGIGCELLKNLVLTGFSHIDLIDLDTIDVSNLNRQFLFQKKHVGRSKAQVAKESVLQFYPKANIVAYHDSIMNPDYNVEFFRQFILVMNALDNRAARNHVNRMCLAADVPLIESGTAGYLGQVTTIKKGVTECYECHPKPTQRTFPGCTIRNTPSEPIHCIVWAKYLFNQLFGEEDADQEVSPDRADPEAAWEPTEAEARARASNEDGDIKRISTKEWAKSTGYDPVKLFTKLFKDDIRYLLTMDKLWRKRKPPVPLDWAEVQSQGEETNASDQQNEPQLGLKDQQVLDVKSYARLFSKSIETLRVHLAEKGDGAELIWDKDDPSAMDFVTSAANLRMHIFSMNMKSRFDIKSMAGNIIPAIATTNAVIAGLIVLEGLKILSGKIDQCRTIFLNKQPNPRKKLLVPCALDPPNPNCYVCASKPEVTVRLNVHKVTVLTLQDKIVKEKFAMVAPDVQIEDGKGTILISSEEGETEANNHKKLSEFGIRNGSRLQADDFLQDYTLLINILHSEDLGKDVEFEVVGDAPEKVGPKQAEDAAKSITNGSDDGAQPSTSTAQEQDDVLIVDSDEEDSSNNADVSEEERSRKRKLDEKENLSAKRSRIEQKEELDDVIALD
T1 sequence (Q9UBE0 1-346 partner): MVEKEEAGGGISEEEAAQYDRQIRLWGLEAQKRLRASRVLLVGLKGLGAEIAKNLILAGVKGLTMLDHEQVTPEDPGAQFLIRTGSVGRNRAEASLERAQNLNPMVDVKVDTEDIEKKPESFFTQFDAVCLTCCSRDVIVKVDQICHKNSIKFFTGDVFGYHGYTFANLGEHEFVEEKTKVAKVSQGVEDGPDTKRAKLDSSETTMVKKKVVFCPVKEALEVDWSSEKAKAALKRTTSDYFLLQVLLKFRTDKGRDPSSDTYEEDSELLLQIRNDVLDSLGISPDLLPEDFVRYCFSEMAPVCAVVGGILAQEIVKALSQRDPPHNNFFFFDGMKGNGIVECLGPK
Method: (§1) Compounds are evaluated for their inhibitory effect on activating enzymes (E1) of ubiquitin, SUMO, Nedd8, Urm1, ISG15 or Atg7 using previously reported methods and protocols. One example is in: Allosteric inhibition of ubiquitin-like modifications by a class of inhibitor of SUMO-activating enzyme. Cell Chemical Biology, 26, 1-11, 2019. PMID: 28051857.
(§2) Compounds are tested in the following manner. The compound and SUMO E1 are incubated for a predetermined amount of time. UBC9, SUMO1, and ATP are added to the E1-compound mixture and incubated at 37° C. The reaction is quenched with Laemmli Buffer. The UBC9-SUMO1 conjugation is analyzed via SDS gel electrophoresis. The percent inhibition is measured by the intensity of the UBC9-SUMO1 band compared to the no compound control. Activities are listed as compound concentration (uM), preincubation time of E1 with compound (min), and percent inhibition of adduct formation (%). […]

Atg7 = target: T2, Atg7 (Homo sapiens, UniProt O95352); assay: Atg7 activating enzyme (E1) inhibition; format: biochemical; conditions: 25 uM compound, 60 min preincubation; read-out: Atg7 percent inhibition of adduct formation
T2 sequence (O95352 1-703): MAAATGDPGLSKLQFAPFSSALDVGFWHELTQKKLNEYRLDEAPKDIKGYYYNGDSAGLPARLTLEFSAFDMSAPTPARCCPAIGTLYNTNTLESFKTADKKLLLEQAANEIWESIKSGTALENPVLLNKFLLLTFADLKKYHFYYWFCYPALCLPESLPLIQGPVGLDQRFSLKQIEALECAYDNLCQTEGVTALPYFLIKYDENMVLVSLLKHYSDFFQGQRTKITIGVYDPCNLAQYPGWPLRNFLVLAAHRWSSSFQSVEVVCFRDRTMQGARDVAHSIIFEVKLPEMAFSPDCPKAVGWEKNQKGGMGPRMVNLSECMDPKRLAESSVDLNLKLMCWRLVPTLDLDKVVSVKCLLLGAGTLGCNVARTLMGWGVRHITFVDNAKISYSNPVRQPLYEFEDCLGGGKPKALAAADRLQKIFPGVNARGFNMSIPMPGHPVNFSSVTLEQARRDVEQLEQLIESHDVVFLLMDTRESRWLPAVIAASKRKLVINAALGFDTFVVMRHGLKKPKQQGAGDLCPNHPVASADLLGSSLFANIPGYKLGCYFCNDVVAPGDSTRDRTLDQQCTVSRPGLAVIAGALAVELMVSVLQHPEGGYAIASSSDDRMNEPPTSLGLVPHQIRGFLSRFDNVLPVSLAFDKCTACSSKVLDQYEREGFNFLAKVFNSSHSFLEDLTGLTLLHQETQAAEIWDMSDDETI
Method: as §1, §2

Row | inhibition at 25 µM (Atg7) [%] | inhibition at 25 µM (SUMO E1; 60 min preincubation) [%] | SMILES | also measured
1 | < 1 | < 1 | C=CC(=O)N1Cc2ccccc2[C@@H](c2cccc(O)c2)C1 [Compound 45] | –
2 | < 1 | < 1 | C=CC(=O)N1CCc2cccc(Br)c2C1 [Compound 21] | –
3 | < 1 | – | C=CC(=O)N1Cc2cc(Br)sc2[C@@H](c2ccccc2C)C1 [Compound 111] | inhibition at 27 µM (SUMO E1; 30 min preincubation): 80%
4 | < 1 | – | C=CC(=O)N1Cc2ccsc2[C@@H](c2ccccc2)C1 [Compound 116] | inhibition at 27 µM (SUMO E1; 30 min preincubation): < 1%
5 | < 1 | – | C=CC(=O)N1Cc2ccc(Cl)c(Cl)c2[C@@H](c2ccccc2)C1 [Compound 101] | inhibition at 3 µM (SUMO E1; 15 min preincubation): 30%
6 | < 1 | < 1 | C=CC(=O)N1Cc2ccccc2C1 [Compound 13] | –
7 | < 1 | < 1 | C=CC(=O)N1Cc2cc(C#N)ccc2[C@@H](c2ccccc2)C1 [Compound 79] | –
8 | < 1 | < 1 | C=CC(=O)N1Cc2c(C)cc(Br)cc2[C@@H](c2ccccc2)C1 [Compound 47] | –
9 | < 1 | < 1 | C=CC(=O)N1Cc2cc(OC)ccc2[C@@H](c2ccccc2)C1 [Compound 42] | –
10 | < 1 | 40 | C=CC(=O)N1Cc2ccccc2[C@@](C)(c2ccccc2)C1 [Compound 59] | –
11 | < 1 | – | C=CC(=O)N1CCc2ccc(Br)cc2C1 [Compound 2] | inhibition at 25 µM (SUMO E1; 55 min preincubation of E1 with compound): 50%
12 | < 1 | 20 | C=CC(=O)N1Cc2cccc(Br)c2[C@@H](c2ccccc2OC)C1 [Compound 71] | –
13 | < 1 | – | C=CC(=O)N1CC[C@H](c2ccccc2)c2cc(Cl)sc2C1 [Compound 137] | inhibition at 27 µM (SUMO E1; 30 min preincubation): < 1%
14 | < 1 | < 1 | C=CC(=O)N1CCc2cc(Oc3cccc(C)c3)ccc2C1 [Compound 53] | –
15 | < 1 | – | C=CC(=O)N1Cc2sc(CC)cc2[C@@H](c2ccccc2)C1 [Compound 82] | inhibition at 10 µM (SUMO E1; 30 min preincubation): 10%
16 | – | < 1 | C=CC(=O)N1Cc2ccccc2[C@@H](c2ccccc2)C1 [Compound 28] | –

Further lines, the compound ahead of its results:

Row | SMILES | inhibition at 25 µM (Atg7) [%] | inhibition at 25 µM (SUMO E1; 60 min preincubation) [%] | also measured
17 | C=CC(=O)Oc1cccc([C@H]2CN(C(=O)C=C)Cc3ccccc32)c1 [Compound 44] | – | – | inhibition at 18 µM (SUMO E1; 18 uM compound, 30 min preincubation): 50%
18 | C=CC(=O)N1Cc2cc(Cl)c(Cl)cc2[C@@H](c2ccccc2)C1 [Compound 100] | < 1 | – | inhibition at 3 µM (SUMO E1; 15 min preincubation): 30%
19 | C=CC(=O)N1Cc2ccc(-c3ccccc3)cc2[C@@H](c2ccccc2)C1 [Compound 38] | < 1 | < 1 | –
20 | C=CC(=O)N1Cc2ccc(CCO)cc2[C@@H](c2ccccc2)C1 [Compound 40] | < 1 | < 1 | –
21 | O=C(/C=C/C(F)(F)F)N1Cc2sc(Cl)cc2[C@@H](c2ccccc2F)C1 [Compound 120] | < 1 | – | inhibition at 1 µM (SUMO E1; 30 min preincubation): 100%
22 | C=CC(=O)N1Cc2sc(C)cc2[C@@H](c2ccccc2)C1 [Compound 74] | < 1 | 10 | –
23 | Cc1ccccc1[C@H]1CN(C(=O)/C=C/c2ccc(C#N)cc2)Cc2sc(Cl)cc21 [Compound 121] | < 1 | – | inhibition at 27 µM (SUMO E1; 30 min preincubation): < 1%
24 | C=CC(=O)N1Cc2sc(Cl)cc2[C@@H](c2ccccc2OCCCN(C)C)C1 [Compound 152] | < 1 | – | inhibition at 6 µM (SUMO E1; 6 uM compound, 15 min preincubation): < 1%
25 | C=CC(=O)N1Cc2ccc(C(C)C)cc2[C@@H](c2ccccc2)C1 [Compound 39] | < 1 | < 1 | –
26 | CCOC(=O)/C=C/CN1Cc2ccccc2[C@@H](c2ccccc2)C1 [Compound 33] | – | < 1 | –
27 | C=CC(=O)N1Cc2sc(-c3ccccc3)cc2[C@@H](c2ccccc2)C1 [Compound 103] | < 1 | – | inhibition at 27 µM (SUMO E1; 30 min preincubation): < 1%
28 | C=CC(=O)N1Cc2sc(CCC)cc2[C@@H](c2ccccc2C)C1 [Compound 110] | 80 | – | inhibition at 27 µM (SUMO E1; 30 min preincubation): 30%
29 | C=CC(=O)N1Cc2ccc(CC)cc2[C@@H](c2ccccc2)C1 [Compound 41] | < 1 | < 1 | –
30 | C=CC(=O)N1Cc2ccc(Oc3cccnc3)cc2[C@@H](c2ccccc2)C1 [Compound 31] | < 1 | < 1 | –
31 | C=CC(=O)N1Cc2sc(Cl)cc2[C@@H]([C@H]2CCCN(C)C2)C1 [Compound 147] | < 1 | – | inhibition at 9 µM (SUMO E1; 30 min preincubation): < 1%
32 | C=CC(=O)N1Cc2sccc2[C@@H](C2CCCCC2)C1 [Compound 123] | < 1 | – | inhibition at 9 µM (SUMO E1; 30 min preincubation): 40%
33 | CCC(=O)Nc1ccc2cc(Br)ccc2c1 [Compound 25] | < 1 | < 1 | –
34 | Cc1ccccc1[C@H]1CN(C(=O)/C=C/c2ccccc2)Cc2sc(Br)cc21 [Compound 90] | < 1 | < 1 | –
35 | C=CC(=O)N1Cc2sc(C)cc2[C@@H](c2ccccc2)C1 [Compound 81] | – | – | inhibition at 10 µM (SUMO E1; 30 min preincubation): 30%
36 | C=CC(=O)Oc1cccc([C@H]2CN(C(C)=O)Cc3ccccc32)c1 [Compound 50] | – | – | inhibition at 10 µM (SUMO E1; 60 min preincubation): 50%
37 | C=CC(=O)N1Cc2sc(Cl)cc2[C@@H](C2CCCCC2)C1 [Compound 124] | – | – | inhibition at 1 µM (SUMO E1; 30 min preincubation): 100%
38 | C=CC(=O)N1Cc2sc(Cl)cc2[C@@H](c2ccccc2CC)C1 [Compound 144] | – | – | inhibition at 27 µM (SUMO E1; 30 min preincubation): 95%
39 | C=CC(=O)N1Cc2sc(Cl)cc2[C@@H](C2CCCC2)C1 [Compound 125] | – | – | inhibition at 27 µM (SUMO E1; 30 min preincubation): 100%
40 | Cc1ccccc1[C@H]1CN(C(=O)/C=C/CBr)Cc2sc(Cl)cc21 [Compound 131] | – | – | inhibition at 9 µM (SUMO E1; 15 min preincubation): < 1%
41 | C=CC(=O)N1Cc2sc(Cl)cc2[C@@H](c2ccccc2Br)C1 [Compound 158] | – | – | inhibition at 16 µM (SUMO E1; 16 uM compound, 45 min preincubation): < 1%
42 | C=CC(=O)N1Cc2sc(Cl)cc2[C@@H](c2ccccc2-c2ccccc2C(F)(F)F)C1 [Compound 156] | – | – | inhibition at 9 µM (SUMO E1; 15 min preincubation): < 1%
43 | C=CC(=O)N1Cc2sc(Cl)cc2[C@@H](Cc2ccccc2)C1 [Compound 126] | – | – | inhibition at 27 µM (SUMO E1; 20 min preincubation): 40%
44 | C=CC(=O)N1Cc2sc(Cl)cc2[C@@H](c2cccc(C)c2C)C1 [Compound 149] | – | – | inhibition at 1 µM (SUMO E1; 30 min preincubation): 90%
